Reference: patent publication US6737383B1, “Herbicidal oxadiazolidines” (priority 1999, dated 2004)

How the values were obtained:
[1] = tested on: blackgrass; experiment: Test B pre/postemergence blackgrass; format: in vivo, Alopecurus myosuroides
In short: (§1)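 Response is a visual 0-to-10 score relative to untreated plants, where 0 means no effect and 10 means complete control, taken twelve to sixteen days after application. Treatments went onto soil at planting and onto foliage of 1- to 4-leaf plants, using a surfactant-containing non-phytotoxic solvent.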

[2] = tested on: smallflower flatsedge; experiment: Test B flood test smallflower flatsedge; format: in vivo, Cyperus difformis
In short: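 Each value is a visual injury score relative to controls, with 10 meaning complete control and 0 no effect. Evaluation took place twelve to sixteen days after the 2-leaf-stage plants were treated and kept in the greenhouse.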

[3] = tested on: surinam grass; experiment: Test B pre/postemergence surinam grass; format: in vivo, Brachiaria decumbens
In short: as §1

[4] = tested on: bedstraw; experiment: Test B pre/postemergence bedstraw; format: in vivo, Galium aparine
In short: as §1

[5] = Postemergence, Rate 125 g/ha, scale 0 to 10, 0 is no effect, 10 is complete control
[6] = Preemergence, Rate 250 g/ha, scale of 0 to 10 where 0 is no effect and 10 is complete control
[7] = Preemergence, Rate 500 g/ha, scale of 0 to 10 where 0 is no effect and 10 is complete control
[8] = Rate 62 g/ha, Postemergence, scale of 0 to 10 where 0 is no effect and 10 is complete control
[9] = Rate 250 g/ha, Postemergence, scale of 0 to 10 where 0 is no effect and 10 is complete control
[10] = Rate 500 g/ha, Postemergence, scale 0 to 10, 0 no effect, 10 complete control
[11] = Preemergence, Rate 62 g/ha, scale of 0 to 10 where 0 is no effect and 10 is complete control
[12] = Rate 125 g/ha, Postemergence, scale of 0 to 10 where 0 is no effect and 10 is complete control
[13] = Rate 125 g/ha, Preemergence, scale of 0 to 10 where 0 is no effect and 10 is complete control
[14] = Postemergence, Rate 250 g/ha, scale 0 to 10, 0 no effect, 10 complete control
[15] = Postemergence, Rate 1000 g/ha, scale 0 to 10 (0 no effect, 10 complete control)
[16] = Preemergence, Rate 125 g/ha, scale 0 to 10 (0 no effect, 10 complete control)
[17] = Preemergence, Rate 500 g/ha, scale 0 (no effect) to 10 (complete control)
[18] = Rate 125 g/ha, Postemergence, scale 0 to 10, 0 no effect, 10 complete control
[19] = Rate 500 g/ha, Postemergence, 0 to 10 scale (0 no effect, 10 complete control)
[20] = Rate 1000 g/ha, Preemergence, scale 0 to 10 (0 no effect, 10 complete control)

CC(C)N(C(=O)n1oc(=O)n(C2CCC2)c1=O)c1ccc(Cl)cc1 [Compound 349]
2: Plant response rating, Blackgrass ([1]; Preemergence, Rate 62 g/ha, scale 0 to 10 (0 no effect, 10 complete control)) | Blackgrass plant response rating (0 to 10 scale) ([1]; Preemergence, Rate 125 g/ha) | Bedstraw plant response rating [4, 8]
1: Blackgrass plant response rating [1, 8]
4: Plant response rating, Blackgrass [1, 5] | Blackgrass plant response rating [1, 6] | Blackgrass plant response rating [1, 7] | Plant response rating, Blackgrass [1, 9] | B. signalgrass plant response rating [3, 7]
5: Plant response rating, S. Flatsedge ([2]; Postemergence (flood test), Rate 125 g/ha, scale 0 to 10, 0 is no effect, 10 is complete control)
6: Plant response rating, Blackgrass [1, 10]
0: S. Flatsedge plant response rating ([2]; Rate 62 g/ha, Postemergence (flood test species), scale of 0 to 10 where 0 is no effect and 10 is complete control) | Plant response rating, B. signalgrass [3, 5] | B. signalgrass plant response rating [3, 8] | Plant response rating, B. signalgrass [3, 9] | Plant response rating, B. signalgrass [3, 10]
3: Plant response rating, Bedstraw [4, 5] | Plant response rating, Bedstraw [4, 10]

Cc1ccccc1-n1c(=O)on(C(=O)N(c2ccc(C(C)(C)C)cc2)C(C)C)c1=O [Compound 270]
0: Blackgrass plant response rating [1, 11] | Blackgrass plant response rating [1, 6] | Plant response rating, Blackgrass [1, 7] | Blackgrass plant response rating [1, 8] | Blackgrass plant response rating [1, 12] | Blackgrass plant response rating [1, 13] | Plant response rating, Blackgrass [1, 9] | Blackgrass plant response rating [1, 10] | S. Flatsedge plant response rating ([2]; Rate 62 g/ha, headed Pre-emergence (flood test species), scale 0 to 10 (0 no effect, 10 complete control)) | S. Flatsedge plant response rating ([2]; Rate 125 g/ha, Pre-emergence, flood test species, scale 0 to 10 where 0 is no effect and 10 is complete control) | S. Flatsedge plant response rating ([2]; Rate 250 g/ha, Pre-emergence, flood-test species, scale 0 to 10, 0 is no effect, 10 is complete control) | S. Flatsedge plant response rating ([2]; Rate 500 g/ha, Pre-emergence, flood test species, scale 0 to 10 (0 no effect, 10 complete control)) | B. signalgrass plant response rating [3, 11] | B. signalgrass plant response rating [3, 6] | Plant response rating, B. signalgrass [3, 7] | B. signalgrass plant response rating [3, 8] | B. signalgrass plant response rating [3, 12] | B. signalgrass plant response rating [3, 13] | Plant response rating, B. signalgrass [3, 9] | B. signalgrass plant response rating [3, 10] | Bedstraw plant response rating [4, 11] | Bedstraw plant response rating [4, 6] | Plant response rating, Bedstraw [4, 7] | Bedstraw plant response rating [4, 8] | Bedstraw plant response rating [4, 12] | Bedstraw plant response rating [4, 13] | Plant response rating, Bedstraw [4, 9] | Bedstraw plant response rating [4, 10]

CCN(CC)C(=O)n1oc(=O)n(-c2ccc(OC)cc2)c1=O [Compound 1]
8: Blackgrass plant response rating [1, 15] | Plant response rating, B. signalgrass [3, 20]
7: B. signalgrass plant response rating [3, 14] | B. signalgrass plant response rating [3, 19]
0: Blackgrass plant response rating [1, 14] | Plant response rating, Blackgrass [1, 16] | Plant response rating, Blackgrass [1, 6] | Blackgrass plant response rating [1, 18] | S. Flatsedge plant response rating [2, 15] | S. Flatsedge plant response rating ([2]; Rate 125 g/ha, Postemergence section (flood test species), scale 0 to 10, 0 no effect, 10 complete control) | S. Flatsedge plant response rating ([2]; flood test, listed under Postemergence, Rate 250 g/ha, scale 0 to 10, 0 no effect, 10 complete control) | Plant response rating, B. signalgrass [3, 16] | Plant response rating, B. signalgrass [3, 6] | B. signalgrass plant response rating [3, 18] | Bedstraw plant response rating [4, 14] | Bedstraw plant response rating [4, 15] | Plant response rating, Bedstraw [4, 16] | Plant response rating, Bedstraw [4, 6] | Bedstraw plant response rating [4, 17] | Bedstraw plant response rating [4, 18] | Bedstraw plant response rating [4, 19] | Plant response rating, Bedstraw [4, 20]
4: Plant response rating, Blackgrass [1, 20]
6: B. signalgrass plant response rating [3, 15] | B. signalgrass plant response rating [3, 17]
2: Blackgrass plant response rating [1, 17] | Blackgrass plant response rating [1, 19]
